In brackets after ≈: the same amount, converted by molar mass.

The subject of the first data set is Mycobacterium tuberculosis H37Rv (ATCC 27294). The data set can be described thus: microbe, parasite or virus in culture. In kind it is cell-based.
With `[H]/N=C(/N)N[C@H]1[C@H](O)[C@@H](O)[C@H](O[C@@H]2O[C@@H](C)[C@](O)(C=O)[C@H]2O[C@@H]2O[C@@H](CO)[C@H](O)[C@@H](O)[C@@H]2NC)[C@@H](N/C(N)=N\[H])[C@@H]1O` [streptomycin], the MIC stood at 0.25 µg/mL (≈ 0.43 µM).

System in a further data set: not given
Assay: not given
Broadly, the melting point is the temperature of the solid-liquid transition. For the compound `O=C(CO[C@@H]1COc2nc([N+](=O)[O-])cn2C1)N1CCN(c2ccc(C(F)(F)F)cn2)CC1`, the melting point lay in the range of 189 to 190 °C.

With `O=[N+]([O-])c1cn2c(n1)OC[C@@H](OCc1nc3ccc(OC(F)(F)F)cc3[nH]1)C2`, the melting point lay in the range of 99 to 100 °C.

In the case of `O=C(CO[C@@H]1COc2nc([N+](=O)[O-])cn2C1)N1CCN(c2ccc(F)cc2)CC1`, the melting point fell in the range of 73 to 74 °C.

Turning to `O=[N+]([O-])c1cn2c(n1)OC[C@@H](OCc1csc(-c3ccc(OC(F)(F)F)cc3)n1)C2`, the melting point lay within 140 to 141 °C.

In the case of `O=C(CO[C@@H]1COc2nc([N+](=O)[O-])cn2C1)N1CCC(c2nc3cc(OC(F)(F)F)ccc3[nH]2)CC1`, the melting point is 131 to 132 °C.

`O=C(CO[C@@H]1COc2nc([N+](=O)[O-])cn2C1)N1CCN(c2ccc(OC(F)(F)F)cc2)CC1` registered a melting point of 77 to 79 °C.

As for `O=C(CO[C@@H]1COc2nc([N+](=O)[O-])cn2C1)Nc1nc(-c2ccc(OC(F)(F)F)cc2)cs1`, the melting point is 120 to 121 °C.

`O=C(CO[C@@H]1COc2nc([N+](=O)[O-])cn2C1)Nc1ccc(OC(F)(F)F)cc1`: the melting point was 157 to 158 °C.

Consider `O=[N+]([O-])c1cn2c(n1)OC[C@@H](OCc1ccc(-c3nc4cc(OC(F)(F)F)ccc4[nH]3)cc1)C2`, for which the melting point was 98 to 99 °C.

`O=C(CO[C@@H]1COc2nc([N+](=O)[O-])cn2C1)Nc1nc2ccc(OC(F)(F)F)cc2s1` (stereo in doubt) had a melting point of 89 to 90 °C.

In the case of `O=C(CO[C@@H]1COc2nc([N+](=O)[O-])cn2C1)NCc1ccc(OC(F)(F)F)cc1`, the melting point lay in the range of 110 to 111 °C.

With `O=[N+]([O-])c1cn2c(n1)OC[C@@H](OCc1nc3ccc(C(F)(F)F)cc3[nH]1)C2`, the melting point lay in the range of 120 to 121 °C.

For `O=[N+]([O-])c1cn2c(n1)OCC(OCc1ccc(-c3nc4cc(OC(F)(F)F)ccc4o3)cc1)C2` (stereo not drawn), the melting point was 187 to 188 °C.

As for `O=[N+]([O-])c1cn2c(n1)OCC(OCc1ccc(OCc3ccc(F)cc3)cc1)C2` (stereo not drawn), the melting point was 150.2 to 150.9 °C.
